Test results reported in patent US10689339B2, “Pyrrolidine derivatives” (Hoffmann-La Roche Inc., priority 2016, dated 2020).

Molecular target: human Cat S (Homo sapiens (Human), UniProt P25774)
Assay: Cathepsin enzyme inhibition assay (fluorogenic peptide substrate Z-Val-Val-Arg-AMC)
Type: biochemical
Settings: enzyme 1 nM, substrate 20 μM, pH 6.5
Procedure: Cathepsin Enzyme Inhibition Assay
Enzyme activity is measured by observing the increase in fluorescence intensity caused by cleavage of a peptide substrate containing a fluorophore whose emission is quenched in the intact peptide.
Assay buffer: 100 mM potassium phosphate pH 6.5, EDTA-Na 5 mM, Triton X-100 0.001%, DTT 5 mM.
Enzymes (all at 1 nM): human and mouse Cathepsin S, Cat K, Cat B, Cat L.
Substrate (20 μM): Z-Val-Val-Arg-AMC, except for Cat K which uses Z-Leu-Arg-AMC (both from Bachem).
AMC=7-Amino-4-Methyl-Coumarin.
Excitation 360 nm, Emission 465 nm.
Enzyme is added to the substance dilutions in 96-well microtitre plates and the reaction is started with substrate. […] IC50 are calculated by standard methods.
Inhibition of human Cat S, mouse Cat S, human Cat K, human Cat B, human Cat L and mouse Cat L have been measured separately.

Sequence of human Cat S (P25774 115-331): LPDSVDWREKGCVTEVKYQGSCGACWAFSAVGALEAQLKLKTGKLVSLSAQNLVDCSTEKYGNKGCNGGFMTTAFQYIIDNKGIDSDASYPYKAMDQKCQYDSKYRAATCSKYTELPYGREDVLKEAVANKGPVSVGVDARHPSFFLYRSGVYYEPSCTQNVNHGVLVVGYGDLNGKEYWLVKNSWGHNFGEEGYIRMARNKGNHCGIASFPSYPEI

Row | Compound | IC50 [pM]
1 | N#CC1(NC(=O)[C@@H]2C[C@@H](S(=O)(=O)c3ccc(-c4ccc5c(c4)OC(F)(F)O5)cc3C(F)(F)F)CN2C(=O)C2(C(F)(F)F)CC2)CC1 [Example 45, (2S,4R)-4-[4-(2,2-Difluoro-benzo[1,3]dioxol-5-yl)-2-trifluoromethyl-benzenesulfonyl]-1-(1-trifluoromethyl-cyclopropanecarbonyl)-pyrrolidine-2-carboxylic acid (1-cyano-cyclopropyl)-amide] | 1070
2 | Cn1nc(C(F)(F)F)cc1-c1ccc(S(=O)(=O)[C@@H]2C[C@@H](C(=O)NC3(C#N)CC3)N(C(=O)C3(C(F)(F)F)CC3)C2)cc1 [Example 28, (2S,4R)—N-(1-cyanocyclopropyl)-4-(4-(1-methyl-3-(trifluoromethyl)-1H-pyrazol-5-yl)phenylsulfonyl)-1-(1-(trifluoromethyl)cyclopropanecarbonyl)pyrrolidine-2-carboxamide] | 2330
3 | Cc1nc(C)n(-c2ccc(S(=O)(=O)[C@@H]3C[C@@H](C(=O)NC4(C#N)CC4)N(C(=O)C4(C(F)(F)F)CC4)C3)cc2)n1 [Example 33, (2S,4R)—N-(1-cyanocyclopropyl)-4-(4-(3,5-dimethyl-1H-1,2,4-triazol-1-yl)phenylsulfonyl)-1-(1-(trifluoromethyl)cyclopropanecarbonyl)pyrrolidine-2-carboxamide] | 1570
4 | N#CC1(NC(=O)[C@@H]2C[C@@H](S(=O)(=O)c3ccc(OC4CCC4)cc3C(F)(F)F)CN2C(=O)C2(C(F)(F)F)CC2)CC1 [Example 7, (2S,4R)-4-(4-Cyclobutoxy-2-trifluoromethyl-benzenesulfonyl)-1-(1-trifluoromethyl-cyclopropanecarbonyl)-pyrrolidine-2-carboxylic acid (1-cyano-cyclopropyl)-amide] | 910
5 | CCOc1ccccc1-c1ccc(S(=O)(=O)[C@@H]2C[C@@H](C(=O)NC3(C#N)CC3)N(C(=O)C3(C(F)(F)F)CC3)C2)c(C)c1 [Example 40, (2S,4R)—N-(1-cyanocyclopropyl)-4-(2′-ethoxy-3-methylbiphenyl-4-ylsulfonyl)-1-(1-(trifluoromethyl)cyclopropanecarbonyl)pyrrolidine-2-carboxamide] | 1210
6 | N#CC1(NC(=O)[C@@H]2C[C@@H](S(=O)(=O)c3ccc(-c4c[nH]nc4C(F)(F)F)cc3C(F)(F)F)CN2C(=O)C2(C(F)(F)F)CC2)CC1 [Example 58, (2S,4R)-1-(1-Trifluoromethyl-cyclopropanecarbonyl)-4-[2-trifluoromethyl-4-(3-trifluoromethyl-1Hpyrazol-4-yl)-benzenesulfonyl]-pyrrolidine-2-carboxylic acid (1-cyano-cyclopropyl)-amide] | 2420
7 | N#CC1(NC(=O)[C@@H]2C[C@@H](S(=O)(=O)c3ccc(-c4ccccc4OC(F)(F)F)cc3)CN2C(=O)C2(C(F)(F)F)CC2)CC1 [Example 20, (2S,4R)—N-(1-cyanocyclopropyl)-4-(2′-(trifluoromethoxy)biphenyl-4-ylsulfonyl)-1-(1-(trifluoromethyl)cyclopropanecarbonyl)pyrrolidine-2-carboxamide] | 5720
8 | Cc1cc(-c2ccccc2OC(F)(F)F)ccc1S(=O)(=O)[C@@H]1C[C@@H](C(=O)NC2(C#N)CC2)N(C(=O)C2(C(F)(F)F)CC2)C1 [Example 22, (2S,4R)—N-(1-cyanocyclopropyl)-4-(3-methyl-2′-(trifluoromethoxy)biphenyl-4-ylsulfonyl)-1-(1-(trifluoromethyl)cyclopropanecarbonyl)pyrrolidine-2-carboxamide] | 1140
9 | Cc1nnn(-c2ccc(S(=O)(=O)[C@@H]3C[C@@H](C(=O)NC4(C#N)CC4)N(C(=O)C4(C(F)(F)F)CC4)C3)c(Cl)c2)n1 [Example 8, (2S,4R)-4-(2-chloro-4-(5-methyl-2H-tetrazol-2-yl)phenylsulfonyl)-N-(1-cyanocyclopropyl)-1-(1-(trifluoromethyl)cyclopropanecarbonyl)pyrrolidine-2-carboxamide] | 533
10 | N#CC1(NC(=O)[C@@H]2C[C@@H](S(=O)(=O)c3ccc(-n4ccc(C(F)(F)F)n4)cc3)CN2C(=O)C2(C(F)(F)F)CC2)CC1 [Example 35, (2S,4R)—N-(1-cyanocyclopropyl)-4-(4-(3-(trifluoromethyl)-1H-pyrazol-1-yl)phenylsulfonyl)-1-(1-(trifluoromethyl)cyclopropanecarbonyl)pyrrolidine-2-carboxamide] | 1020
11 | Cc1cc(-n2cnc(Cl)n2)ccc1S(=O)(=O)[C@@H]1C[C@H](C(=O)NC2(C#N)CC2)N(C(=O)C2(C(F)(F)F)CC2)C1 [Example 67, (2R,4R)-4-(4-(3-chloro-1H-1,2,4-triazol-1-yl)-2-methylphenylsulfonyl)-N-(1-cyanocyclopropyl)-1-(1-(trifluoromethyl)cyclopropanecarbonyl)pyrrolidine-2-carboxamide] | 542000

Continued by falling IC50, values first:

Row | IC50 [pM] | Compound
12 | 978 | N#CC1(NC(=O)[C@@H]2C[C@@H](S(=O)(=O)c3ccc(-c4ccccc4OC(F)(F)F)cc3C(F)(F)F)CN2C(=O)C2(C(F)(F)F)CC2)CC1 [Example 4, (2S,4R)-4-(2′-Trifluoromethoxy-3-trifluoromethyl-biphenyl-4-sulfonyl)-1-(1-trifluoromethyl-cyclopropanecarbonyl)-pyrrolidine-2-carboxylic acid (1-cyano-cyclopropyl)-amide]
13 | 968 | N#CC1(NC(=O)[C@@H]2C[C@@H](S(=O)(=O)c3ccc(-c4cc[n+]([O-])c(Cl)c4)cc3C(F)(F)F)CN2C(=O)C2(C(F)(F)F)CC2)CC1 [Example 1, (2S,4R)-4-[4-(2-Chloro-1-oxy-pyridin-4-yl)-2-trifluoromethyl-benzenesulfonyl]-1-(1-trifluoromethyl-cyclopropanecarbonyl)-pyrrolidine-2-carboxylic acid (1-cyano-cyclopropyl)-amide]
14 | 836 | CCOc1ccccc1-c1ccc(S(=O)(=O)[C@@H]2C[C@@H](C(=O)NC3(C#N)CC3)N(C(=O)C3(C(F)(F)F)CC3)C2)c(C(F)(F)F)c1 [Example 5, (2S,4R)-4-(2′-Ethoxy-3-trifluoromethyl-biphenyl-4-sulfonyl)-1-(1-trifluoromethyl-cyclopropanecarbonyl)-pyrrolidine-2-carboxylic acid (1-cyano-cyclopropyl)-amide]
15 | 829 | Cn1cc(-c2ccc(S(=O)(=O)[C@@H]3C[C@@H](C(=O)NC4(C#N)CC4)N(C(=O)C4(C(F)(F)F)CC4)C3)c(C(F)(F)F)c2)c(C(F)(F)F)n1 [Example 68, (2S,4R)-4-[4-(1-Methyl-3-trifluoromethyl-1Hpyrazol-4-yl)-2-trifluoromethyl-benzenesulfonyl]-1-(1-trifluoromethyl-cyclopropanecarbonyl)-pyrrolidine-2-carboxylic acid (1-cyano-cyclopropyl)-amide]
16 | 811 | Cc1cc(-c2ccccc2C=O)ccc1S(=O)(=O)[C@@H]1C[C@@H](C(=O)NC2(C#N)CC2)N(C(=O)C2(C(F)(F)F)CC2)C1 [Example 29, (2S,4R)—N-(1-cyanocyclopropyl)-4-(2′-formyl-3-methylbiphenyl-4-ylsulfonyl)-1-(1-(trifluoromethyl)cyclopropanecarbonyl)pyrrolidine-2-carboxamide]
17 | 772 | Cc1ncn(-c2ccc(S(=O)(=O)[C@@H]3C[C@@H](C(=O)NC4(C#N)CC4)N(C(=O)C4(C(F)(F)F)CC4)C3)c(C(F)(F)F)c2)n1 [Example 24, (2S,4R)-4-[4-(3-Methyl-[1,2,4]triazol-1-yl)-2-trifluoromethyl-benzenesulfonyl]-1-(1-trifluoromethyl-cyclopropanecarbonyl)-pyrrolidine-2-carboxylic acid (1-cyano-cyclopropyl)-amide]
18 | 770 | Cc1cc(-c2ccc(S(=O)(=O)[C@@H]3C[C@@H](C(=O)NC4(C#N)CC4)N(C(=O)C4(C(F)(F)F)CC4)C3)c(C(F)(F)F)c2)cc[n+]1[O-] [Example 2, (2S,4R)-4-[4-(2-Methyl-1-oxy-pyridin-4-yl)-2-trifluoromethyl-benzenesulfonyl]-1-(1-trifluoromethyl-cyclopropanecarbonyl)-pyrrolidine-2-carboxylic acid (1-cyano-cyclopropyl)-amide]
19 | 704 | N#CC1(NC(=O)[C@@H]2C[C@@H](S(=O)(=O)c3ccc(-n4ccc(C(F)(F)F)n4)cc3Cl)CN2C(=O)C2(C(F)(F)F)CC2)CC1 [Example 17, (2S,4R)-4-(2-chloro-4-(3-(trifluoromethyl)-1H-pyrazol-1-yl)phenylsulfonyl)-N-(1-cyanocyclopropyl)-1-(1-(trifluoromethyl)cyclopropanecarbonyl)pyrrolidine-2-carboxamide]
20 | 686 | N#CC1(NC(=O)[C@@H]2C[C@@H](S(=O)(=O)c3ccc(-n4cncn4)cc3Cl)CN2C(=O)C2(C(F)(F)F)CC2)CC1 [Example 10, (2S,4R)-4-(2-chloro-4-(1H-1,2,4-triazol-1-yl)phenylsulfonyl)-N-(1-cyanocyclopropyl)-1-(1-(trifluoromethyl)cyclopropanecarbonyl)pyrrolidine-2-carboxamide]
21 | 568 | N#CC1(NC(=O)[C@@H]2C[C@@H](S(=O)(=O)c3ccc(-n4ccnn4)cc3Cl)CN2C(=O)C2(C(F)(F)F)CC2)CC1 [Example 13, (2S,4R)-4-(2-chloro-4-(1H-1,2,3-triazol-1-yl)phenylsulfonyl)-N-(1-cyanocyclopropyl)-1-(1-(trifluoromethyl)cyclopropanecarbonyl)pyrrolidine-2-carboxamide]
22 | 563 | N#CC1(NC(=O)[C@@H]2C[C@@H](S(=O)(=O)c3ccc(-n4cnc(Cl)n4)cc3Cl)CN2C(=O)C2(C(F)(F)F)CC2)CC1 [Example 16, (2S,4R)-4-(2-chloro-4-(3-chloro-1H-1,2,4-triazol-1-yl)phenylsulfonyl)-N-(1-cyanocyclopropyl)-1-(1-(trifluoromethyl)cyclopropanecarbonyl)pyrrolidine-2-carboxamide]
